Here are results for three compounds from ChEMBL document CHEMBL4813981, “Synthesis and in vitro antibacterial activity of new aminothiazole-oximepiperidone cephalosporins” (2021).

Holding throughout (assay type): functional
Experiment [1] relates to Enterococcus faecalis. The experiment in a line: Antibacterial activity against Enterococcus faecalis ATCC 51299 assessed as reduction in bacterial growth.
Experiment [2] deals with Klebsiella pneumoniae. The experiment is described as follows: Antibacterial activity against Multidrug resistant Klebsiella pneumoniae KR 15-1 assessed as reduction in bacterial growth.
The test system of experiment [3] is Klebsiella pneumoniae. The experiment in a line: Antibacterial activity against Multidrug resistant Klebsiella pneumoniae KR 15-2 assessed as reduction in bacterial growth.
The test system of experiment [4] is Acinetobacter baumannii. The experiment in a line: Antibacterial activity against Multidrug resistant Acinetobacter baumannii AR 15-2 assessed as reduction in bacterial growth.
Experiment [5] has as its system Escherichia coli. The experiment in a line: Antibacterial activity against Escherichia coli NCTC 13353 assessed as reduction in bacterial growth.
In experiment [6] the test system is Klebsiella pneumoniae. The experiment is described as follows: Antibacterial activity against Klebsiella pneumoniae ATCC BAA-1705 assessed as reduction in bacterial growth.
Experiment [7] concerns Escherichia coli. The experiment in a line: Antibacterial activity against Escherichia coli 15-4 overexpressing extended spectrum beta-lactamases assessed as reduction in bacterial growth.
In experiment [8] the test system is Escherichia coli. The experiment is described as follows: Antibacterial activity against Escherichia coli 15-3 overexpressing extended spectrum beta-lactamases assessed as reduction in bacterial growth.
Experiment [9] concerns Acinetobacter baumannii. The experiment in a line: Antibacterial activity against Multidrug resistant Acinetobacter baumannii AR 15-4 assessed as reduction in bacterial growth.
Experiment [10] deals with Klebsiella pneumoniae. The experiment is described as follows: Antibacterial activity against Klebsiella pneumoniae ATCC 700603 assessed as reduction in bacterial growth.
Experiment [11] concerns Escherichia coli. The experiment in a line: Antibacterial activity against Escherichia coli ATCC 35218 assessed as reduction in bacterial growth.
The subject of experiment [12] is Escherichia coli. The experiment in a line: Antibacterial activity against Escherichia coli 15-5 overexpressing extended spectrum beta-lactamases assessed as reduction in bacterial growth.
For experiment [13], the system named is Acinetobacter baumannii. The experiment is described as follows: Antibacterial activity against Multidrug resistant Acinetobacter baumannii AR 15-3 assessed as reduction in bacterial growth.
Experiment [14] concerns Escherichia coli. The experiment is described as follows: Antibacterial activity against Escherichia coli ATCC 25922 assessed as reduction in bacterial growth.
The subject of experiment [15] is Acinetobacter baumannii. The experiment in a line: Antibacterial activity against Acinetobacter baumannii NCTC 13304 assessed as reduction in bacterial growth.
Experiment [16] deals with Klebsiella pneumoniae. The experiment is described as follows: Antibacterial activity against Multidrug resistant Klebsiella pneumoniae KR 15-3 assessed as reduction in bacterial growth.
Experiment [17] has as its system Pseudomonas aeruginosa. The experiment is described as follows: Antibacterial activity against Pseudomonas aeruginosa ATCC 27853 assessed as reduction in bacterial growth.
The subject of experiment [18] is Escherichia coli. The experiment in a line: Antibacterial activity against Escherichia coli 15-3 overexpressing extended spectrum beta-lactamases assessed as reduction in bacterial growth in the presence of Avibactam.
Experiment [19] relates to Escherichia coli. The experiment is described as follows: Antibacterial activity against Escherichia coli ATCC 35218 assessed as reduction in bacterial growth in the presence of Avibactam.
In experiment [20] the test system is Klebsiella pneumoniae. The experiment is described as follows: Antibacterial activity against Multidrug resistant Klebsiella pneumoniae KR 15-1 assessed as reduction in bacterial growth in the presence of Avibactam.
For experiment [21], the system named is Escherichia coli. The experiment is described as follows: Antibacterial activity against Escherichia coli 15-5 overexpressing extended spectrum beta-lactamases assessed as reduction in bacterial growth in the presence of Avibactam.
In experiment [22] the test system is Acinetobacter baumannii. The experiment in a line: Antibacterial activity against Multidrug resistant Acinetobacter baumannii AR 15-2 assessed as reduction in bacterial growth in the presence of Avibactam.
The subject of experiment [23] is Acinetobacter baumannii. The experiment is described as follows: Antibacterial activity against Multidrug resistant Acinetobacter baumannii AR 15-3 assessed as reduction in bacterial growth in the presence of Avibactam.
The subject of experiment [24] is Escherichia coli. The experiment in a line: Antibacterial activity against Escherichia coli NCTC 13353 assessed as reduction in bacterial growth in the presence of Avibactam.
For experiment [25], the system named is Klebsiella pneumoniae. The experiment is described as follows: Antibacterial activity against Multidrug resistant Klebsiella pneumoniae KR 15-3 assessed as reduction in bacterial growth in the presence of Avibactam.
Experiment [26] deals with Acinetobacter baumannii. The experiment is described as follows: Antibacterial activity against Multidrug resistant Acinetobacter baumannii AR 15-4 assessed as reduction in bacterial growth in the presence of Avibactam.
Experiment [27] relates to Escherichia coli. The experiment is described as follows: Antibacterial activity against Escherichia coli 15-4 overexpressing extended spectrum beta-lactamases assessed as reduction in bacterial growth in the presence of Avibactam.
Experiment [28] relates to Klebsiella pneumoniae. The experiment is described as follows: Antibacterial activity against Klebsiella pneumoniae ATCC 700603 assessed as reduction in bacterial growth in the presence of Avibactam.
The test system of experiment [29] is Acinetobacter baumannii. The experiment in a line: Antibacterial activity against Acinetobacter baumannii NCTC 13304 assessed as reduction in bacterial growth in the presence of Avibactam.
For experiment [30], the system named is Klebsiella pneumoniae. The experiment is described as follows: Antibacterial activity against Multidrug resistant Klebsiella pneumoniae KR 15-2 assessed as reduction in bacterial growth in the presence of Avibactam.
Experiment [31] relates to Enterococcus faecalis. The experiment is described as follows: Antibacterial activity against Enterococcus faecalis ATCC 51299 assessed as reduction in bacterial growth in the presence of Avibactam.
Experiment [32] deals with Klebsiella pneumoniae. The experiment in a line: Antibacterial activity against Klebsiella pneumoniae ATCC BAA-1705 assessed as reduction in bacterial growth in the presence of Avibactam.
Experiment [33] concerns Escherichia coli. The experiment is described as follows: Antibacterial activity against Escherichia coli ATCC 25922 assessed as reduction in bacterial growth in the presence of Avibactam.
In experiment [34] the test system is Pseudomonas aeruginosa. The experiment is described as follows: Antibacterial activity against Pseudomonas aeruginosa ATCC 27853 assessed as reduction in bacterial growth in the presence of Avibactam.

One may read the MIC as the lowest concentration that inhibits growth of the organism.

The structures appear in SMILES notation. Converted amounts (≈) assume the structure as drawn.

Take `C/C=C/C1=C(C(=O)O)N2C(=O)[C@@H](NC(=O)/C(=N\OCc3cc(=O)c(O)cn3O)c3csc(N)n3)[C@H]2SC1`: the MIC in the experiment on Enterococcus faecalis [1] was over 64 µg/mL; in the experiment with Klebsiella pneumoniae [2], over 64 µg/mL; in the experiment with Klebsiella pneumoniae [3], over 64 µg/mL; with Acinetobacter baumannii [4], over 64 µg/mL; with Escherichia coli [5], over 64 µg/mL; with Klebsiella pneumoniae [6] it was 64 µg/mL (≈ 117 µM). Besides, the MIC was over 64 µg/mL with Escherichia coli [7]; over 64 µg/mL in the experiment with Escherichia coli [8]; over 64 µg/mL with Acinetobacter baumannii [9]; 64 µg/mL (≈ 117 µM) in the experiment with Klebsiella pneumoniae [10]; 1 µg/mL (≈ 1.82 µM) in the experiment with Escherichia coli [11]; over 64 µg/mL in the experiment with Escherichia coli [12]. Also, the MIC with Acinetobacter baumannii [13] is over 64 µg/mL; in the experiment on Escherichia coli [14], 1 µg/mL (≈ 1.82 µM); in the experiment with Acinetobacter baumannii [15], over 64 µg/mL; with Klebsiella pneumoniae [16], over 64 µg/mL; with Pseudomonas aeruginosa [17], 16 µg/mL (≈ 29.2 µM).
Turning to `COCC1=C(C(=O)O)N2C(=O)[C@@H](NC(=O)/C(=N\OCc3cc(=O)c(O)cn3O)c3csc(N)n3)[C@H]2SC1`, the MIC in the experiment on Enterococcus faecalis [1], in the experiment on Klebsiella pneumoniae [2], in the experiment with Klebsiella pneumoniae [3], in the experiment on Acinetobacter baumannii [4], with Escherichia coli [5] and with Klebsiella pneumoniae [6] was over 64 µg/mL in each case. The MIC in the experiment with Escherichia coli [7] is over 64 µg/mL; in the experiment on Escherichia coli [8], over 64 µg/mL; with Acinetobacter baumannii [9] it was over 64 µg/mL; in the experiment with Klebsiella pneumoniae [10], 64 µg/mL (≈ 116 µM); in the experiment on Escherichia coli [11], 0.25 µg/mL (≈ 0.452 µM); with Escherichia coli [12] it was over 64 µg/mL. In addition, the MIC with Acinetobacter baumannii [13] was over 64 µg/mL; in the experiment with Escherichia coli [14] it was 2 µg/mL (≈ 3.62 µM); with Acinetobacter baumannii [15], over 64 µg/mL; with Klebsiella pneumoniae [16] it was over 64 µg/mL; with Pseudomonas aeruginosa [17], 2 µg/mL (≈ 3.62 µM).
Take `Nc1nc(/C(=N/OCc2cc(=O)c(O)cn2O)C(=O)N[C@@H]2C(=O)N3C(C(=O)O)=C(Cl)CS[C@H]23)cs1`: the MIC with Enterococcus faecalis [1] was over 64 µg/mL; in the experiment with Escherichia coli [18] it was 1 µg/mL; in the experiment with Escherichia coli [19] it was 0.125 µg/mL; in the experiment with Klebsiella pneumoniae [20], 2 µg/mL; with Escherichia coli [21], 0.5 µg/mL; in the experiment with Klebsiella pneumoniae [2] it was over 64 µg/mL. The MIC in the experiment on Klebsiella pneumoniae [3] was over 64 µg/mL; with Acinetobacter baumannii [22] it was 16 µg/mL; in the experiment with Acinetobacter baumannii [23] it was 8 µg/mL; in the experiment on Escherichia coli [24] it was 1 µg/mL; in the experiment on Klebsiella pneumoniae [25], 1 µg/mL; in the experiment on Acinetobacter baumannii [4], over 64 µg/mL. For the same compound, the MIC with Acinetobacter baumannii [26] is 8 µg/mL; in the experiment on Escherichia coli [5], over 64 µg/mL; with Klebsiella pneumoniae [6], over 64 µg/mL; in the experiment with Escherichia coli [27], 1 µg/mL; with Escherichia coli [7], over 64 µg/mL; in the experiment on Klebsiella pneumoniae [28], over 64 µg/mL. Besides, the MIC in the experiment with Acinetobacter baumannii [29] is 32 µg/mL; in the experiment on Escherichia coli [8], over 64 µg/mL; in the experiment with Acinetobacter baumannii [9], over 64 µg/mL; in the experiment with Klebsiella pneumoniae [10], over 64 µg/mL; in the experiment on Klebsiella pneumoniae [30], 1 µg/mL; with Escherichia coli [11], 0.5 µg/mL (≈ 0.921 µM). Further, the MIC in the experiment on Escherichia coli [12] was over 64 µg/mL; in the experiment on Enterococcus faecalis [31], over 64 µg/mL; in the experiment with Acinetobacter baumannii [13], over 64 µg/mL; with Klebsiella pneumoniae [32], 8 µg/mL; in the experiment on Escherichia coli [14] it was 2 µg/mL (≈ 3.68 µM); in the experiment on Acinetobacter baumannii [15], over 64 µg/mL. For the same compound, the minimal inhibitory concentration (MIC) with Klebsiella pneumoniae [16] is over 64 µg/mL; with Escherichia coli [33], 0.125 µg/mL; in the experiment on Pseudomonas aeruginosa [34], 1 µg/mL; in the experiment on Pseudomonas aeruginosa [17], 4 µg/mL (≈ 7.37 µM).
